The test system of this experiment is BDF1 mice, P388 leukemia ip, median survival T/C. Briefly: NCI In Vivo Anticancer Drug Screen. Data for tumor model P388 Leukemia (intraperitoneal) in B6D2F1 (BDF1) mice. Particulars: endpoint: median survival time, higher = longer survival. In short, it runs like this:
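Mice carrying the transplantable tumour receive compound or vehicle. Survival is followed in each arm, and the treated measure is divided by the vehicle measure.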

The mark [1] stands for this setting: dose: 12.5 mg/kg/injection, schedule: Q01DX009 (ip), vehicle: saline with Tween-80.
The mark [2] stands for this setting: dose: 25.0 mg/kg/injection, schedule: Q01DX009 (ip), vehicle: saline with Tween-80.
Setting [3] is: dose: 100.0 mg/kg/injection, schedule: Q01DX009 (ip), vehicle: Klucel (hydroxypropylcellulose) (HPC).
Where [4] appears, read: dose: 200.0 mg/kg/injection, schedule: Q01DX009 (ip), vehicle: Klucel (hydroxypropylcellulose) (HPC).
Setting [5] is: dose: 400.0 mg/kg/injection, schedule: Q01DX009 (ip), vehicle: Klucel (hydroxypropylcellulose) (HPC).
Where [6] appears, read: dose: 25.0 mg/kg/injection, schedule: Q04DX003 (ip), vehicle: saline.
Setting [7] is: dose: 100.0 mg/kg/injection, schedule: Q04DX003 (ip), vehicle: saline sonified.
The mark [8] stands for this setting: dose: 200.0 mg/kg/injection, schedule: Q04DX003 (ip), vehicle: saline sonified.
Where [9] appears, read: dose: 400.0 mg/kg/injection, schedule: Q04DX003 (ip), vehicle: saline sonified.

Molecules are shown by their SMILES. Values joined by “and” are separate entries in the source; they are usually repeats but may differ in a detail not shown here. Equal entries are not always repeated. Toxic doses and inconclusive results are not listed.

We go through 16 molecules from PubChem BioAssay AID328 (DTP/NCI, 2004).

As for `Oc1ccc(Nc2ccnc3cc(Cl)ccc23)cc1CN(CCCl)CCCl`, the T/C is 177 % of control (dose: 1.25 mg/kg/injection, schedule: Q01DX009 (ip), vehicle: saline); 194 % of control (dose: 2.5 mg/kg/injection, schedule: Q01DX009 (ip), vehicle: saline); 163 % of control (dose: 3.3 mg/kg/injection, schedule: Q04DX003 (ip), vehicle: saline); 150 % of control (dose: 5.0 mg/kg/injection, schedule: Q01DX009 (ip), vehicle: saline); 163 % of control (dose: 5.0 mg/kg/injection, schedule: Q04DX003 (ip), vehicle: saline); 160 % of control (dose: 10.0 mg/kg/injection, schedule: Q04DX003 (ip), vehicle: saline with Tween-80).
For `CCCCOc1ccc(NC(N)=Nc2ccc(Cl)cc2)cc1`, the T/C was 95 % of control (dose: 3.12 mg/kg/injection, schedule: Q01DX010 (ip), vehicle: carboxymethylcellulose (CMC)); 90 % of control (dose: 12.5 mg/kg/injection, schedule: Q01DX010 (ip), vehicle: carboxymethylcellulose (CMC)); 95 % of control (dose: 25.0 mg/kg/injection, schedule: Q01DX010 (ip), vehicle: carboxymethylcellulose (CMC)); 109 % of control (dose: 25.0 mg/kg/injection, schedule: Q04DX003 (ip), vehicle: saline with Tween-80); 95 % of control (dose: 50.0 mg/kg/injection, schedule: Q01DX010 (ip), vehicle: carboxymethylcellulose (CMC)); 90 % of control (dose: 50.0 mg/kg/injection, schedule: Q04DX003 (ip), vehicle: saline with Tween-80).
For `Cc1ccc(NC(=O)N(CCCl)N=O)cc1NC(=O)N(CCCl)N=O`, the T/C is, setting by setting: (dose: 1.25 mg/kg/injection, schedule: Q04DX003 (ip), vehicle: other) 179 % of control; (dose: 2.5 mg/kg/injection, schedule: Q04DX003 (ip), vehicle: other) 175 % of control; (dose: 3.12 mg/kg/injection, schedule: Q01DX009 (ip), vehicle: other) 204 % of control; (dose: 3.13 mg/kg/injection, schedule: Q01DX009 (ip), vehicle: saline with Tween-80) 185 % of control; (dose: 5.0 mg/kg/injection, schedule: Q04DX003 (ip), vehicle: other) 200 % of control; (dose: 6.25 mg/kg/injection, schedule: Q01DX009 (ip), vehicle: other) 207 % of control. Further, the T/C by setting is: (dose: 6.25 mg/kg/injection, schedule: Q01DX009 (ip), vehicle: saline with Tween-80) 221 % of control; (dose: 6.25 mg/kg/injection, schedule: Q04DX003 (ip), vehicle: other) 166 % of control; under setting [1], 221 % of control; under setting [2], 113 % of control; (dose: 25.0 mg/kg/injection, schedule: Q04DX003 (ip), vehicle: other) 177 % of control.
Regarding `O=C1N2CCOC2=NC1(c1ccccc1)c1ccccc1`, the T/C is 94 % of control (dose: 12.5 mg/kg/injection, schedule: Q01DX009 (ip), vehicle: water); 100 % of control (dose: 25.0 mg/kg/injection, schedule: Q01DX009 (ip), vehicle: water); 94 % of control (dose: 50.0 mg/kg/injection, schedule: Q01DX009 (ip), vehicle: water); 94 % of control (dose: 100.0 mg/kg/injection, schedule: Q01DX009 (ip), vehicle: water).
Take `CC1(C)C/C(=C\c2ccc(Br)cc2)C(=O)c2ccccc21`: the T/C reads like this: under setting [3], 100 % of control; under setting [4], 105 % of control; under setting [5], 95 % of control.
Regarding `CCCCN(C(=O)C(F)(F)F)C(C)(C)C(SSSC(c1cccs1)C(C)(C)N(CCCC)C(=O)C(F)(F)F)c1cccs1` (stereo not drawn), the T/C (dose: 100.0 mg/kg/injection, schedule: Q04DX003 (ip), vehicle: saline with Tween-80) is 109 % of control.
Turning to `CCN(CC)CCSC(=O)C(O)(c1ccccc1)C1CCCC1` (stereo not drawn), the T/C (dose: 25.0 mg/kg/injection, schedule: Q01DX009 (ip), vehicle: saline) is 109 % of control; the T/C under setting [6] is 109 % of control; the T/C (dose: 50.0 mg/kg/injection, schedule: Q01DX009 (ip), vehicle: saline) is 95 % of control; the T/C (dose: 50.0 mg/kg/injection, schedule: Q04DX003 (ip), vehicle: saline) is 104 % of control; the T/C (dose: 100.0 mg/kg/injection, schedule: Q01DX009 (ip), vehicle: saline) was 113 % of control; the T/C (dose: 100.0 mg/kg/injection, schedule: Q04DX003 (ip), vehicle: saline) was 109 % of control.
Take `CNc1n[n+](-c2ccccc2)no1`: the T/C was 115 % of control (dose: 3.12 mg/kg/injection, schedule: Q01DX009 (ip), vehicle: saline); 101 % of control and 120 % of control (dose: 6.25 mg/kg/injection, schedule: Q01DX009 (ip), vehicle: saline); 102 % of control (dose: 6.25 mg/kg/injection, schedule: Q04DX003 (ip), vehicle: saline); 96 % of control (dose: 12.5 mg/kg/injection, schedule: Q04DX003 (ip), vehicle: saline); 104 % of control and 107 % of control under setting [6].
Regarding `COc1ccc(-c2cc(C)n(C)[n+]2C)cc1`, the T/C is, setting by setting: under setting [1], 103 % of control; under setting [2], 109 % of control.
For the molecule `CN(C)C(=S)SC(=S)N(C)C`, the T/C is 100 % of control (dose: 25.0 mg/kg/injection, schedule: Q04DX003 (ip), vehicle: Klucel (hydroxypropylcellulose) (HPC)); 95 % of control (dose: 50.0 mg/kg/injection, schedule: Q04DX003 (ip), vehicle: Klucel (hydroxypropylcellulose) (HPC)); 100 % of control and 104 % of control (dose: 100.0 mg/kg/injection, schedule: Q01DX001 (ip), vehicle: Klucel (hydroxypropylcellulose) (HPC)); 109 % of control (dose: 100.0 mg/kg/injection, schedule: Q04DX003 (ip), vehicle: Klucel (hydroxypropylcellulose) (HPC)); 100 % of control (dose: 200.0 mg/kg/injection, schedule: Q01DX001 (ip), vehicle: Klucel (hydroxypropylcellulose) (HPC)); 104 % of control and 108 % of control (dose: 400.0 mg/kg/injection, schedule: Q01DX001 (ip), vehicle: Klucel (hydroxypropylcellulose) (HPC)).
Take `Ic1ncnc2c1ncn2C1CCCO1` (stereo not drawn): the T/C (dose: 44.0 mg/kg/injection, schedule: Q01DX009 (ip), vehicle: saline sonified) was 100 % of control; the T/C (dose: 66.0 mg/kg/injection, schedule: Q01DX009 (ip), vehicle: saline sonified) is 123 % of control; the T/C (dose: 100.0 mg/kg/injection, schedule: Q01DX009 (ip), vehicle: saline sonified) is 114 % of control; the T/C under setting [7] is 115 % of control; the T/C (dose: 150.0 mg/kg/injection, schedule: Q01DX009 (ip), vehicle: saline sonified) was 114 % of control; the T/C (dose: 200.0 mg/kg/injection, schedule: Q01DX009 (ip), vehicle: saline sonified) was 122 % of control. For the same molecule, the T/C is 120 % of control under setting [8]; 100 % of control (dose: 400.0 mg/kg/injection, schedule: Q01DX009 (ip), vehicle: saline sonified); 105 % of control under setting [9].
Consider `O=C(c1ccccc1)C1OC1c1ccc([N+](=O)[O-])cc1` (stereo not drawn), for which the T/C under setting [7] was 104 % of control, the T/C under setting [8] was 100 % of control and the T/C under setting [9] was 100 % of control.
For `Cc1ccc(S(=O)(=O)NC(c2ccccc2)(c2ccccc2)c2ccccc2)cc1`, the T/C reads like this: under setting [3], 113 % of control; under setting [4], 109 % of control; under setting [5], 90 % of control.
Regarding `Cc1ccc(S(=O)(=O)N(C)c2ccccc2C(=O)O)cc1`, the T/C by setting is: (dose: 100.0 mg/kg/injection, schedule: Q01DX001 (ip), vehicle: saline sonified) 100 % of control; (dose: 200.0 mg/kg/injection, schedule: Q01DX001 (ip), vehicle: saline sonified) 95 % of control; (dose: 400.0 mg/kg/injection, schedule: Q01DX001 (ip), vehicle: saline sonified) 100 % of control.
Consider `C/C=C/C=C/C(=O)c1ccc(OC)cc1O`, for which the T/C is 109 % of control (dose: 50.0 mg/kg/injection, schedule: Q01DX009 (ip), vehicle: saline with Tween-80) and 109 % of control (dose: 100.0 mg/kg/injection, schedule: Q01DX009 (ip), vehicle: saline with Tween-80).
Turning to `CN1CCN(c2nn3nnnc3c3ccccc23)CC1`, the T/C reads like this: (dose: 20.0 mg/kg/injection, schedule: Q01DX009 (ip), vehicle: saline with Tween-80) 89 % of control; (dose: 40.0 mg/kg/injection, schedule: Q01DX009 (ip), vehicle: saline with Tween-80) 94 % of control; (dose: 80.0 mg/kg/injection, schedule: Q01DX009 (ip), vehicle: saline with Tween-80) 93 % of control.
